Read-outs that look alike come from different tables or passages of the source.
Key:
[1] = system: NHDF (Normal Human Dermal Fibroblast cells); assay: Cytotoxicity, CCK-8 cell viability assay (safety on normal cells); format: cell-based; details: read-out: Activity IC50, NHDF
Procedure: (§1) The obtained new molecular hybrids of BN were screened in order to initially investigate their cytotoxicity as well as examine the relationships between the structure and biological effect. The common element of all of the tested compounds was the presence of a lipophilic moiety (CH2)nTPP^⊕ (n = 3, 4, 5). The research was conducted on two groups of compounds: 28-TPP^⊕ BN and 3,28-bisTPP^⊕ BN. Their cytotoxicity was investigated on two cancer cell lines: HCT 116 (colorectal carcinoma cell line) and MCF-7 (human breast adenocarcinoma cell line). The proliferation of tumor cells treated with the tested compounds (7 and 9) at 12.5–3.125 µM concentrations were determined after 24 h of incubation. Additionally, all compounds were tested against the NHDF cell line (Normal Human Dermal Fibroblast cells) to assess their safety. Half-maximal inhibitory concentrations (IC50) of triphenylphosphonium analogs of BN were determined using a CCK-8 assay and are summarized in Table 2.
(§2) The human colorectal carcinoma cell line (HCT 116) and the human breast adenocarcinoma cell line (MCF-7) cells were purchased from the American Type Culture Collection (ATCC, Manassas, VA, USA). The Normal Human Dermal Fibroblast (NHDF) cells were purchased from Lonza (Dermal Fibroblasts, Lonza, Poland). All cells were cultured under standard conditions at 37 °C in a humidified atmosphere at 5% CO2 in DMEM/F12 medium (PAA) supplemented with 10% of heat-inactivated fetal bovine serum (FBS, EURx, Gdansk, Poland) and antibiotics (penicillin/streptomycin).
(§3) Cells were seeded at 7500 (HCT 116) or 10,000 (MCF-7, NHDF) cells/well in 96-well plates. After 24 h, the culture medium was removed and 100 µL of fresh medium containing the test compounds at 0–12.5 µM concentrations was added to the culture wells. The test compounds were dissolved in DMSO to obtain a stock solution with a concentration of 5 mM (betulin) or 10 mM (other test compounds). The stock solution was diluted with the fresh culture medium to the desired concentration. Controls were cells grown in medium without the addition of test compounds. After 24 h of incubation with the test compounds, 10 µL of CCK-8 reagent (Bimake, Houston, TX, USA) was added to each well. After 2 h, the absorbance of the samples was measured at a wavelength of 450 nm using a microplate reader (Epoch, BioTek Instruments, Winooski, VT, USA). The determinations were conducted in at least three biological replications (each biological replication contained 3 technical replications). The cell viability rate was calculated using CalcuSyn software (version 2.0, Biosoft, Cambridge, UK).

[2] = system: HCT 116 (colorectal carcinoma cell line); assay: Cytotoxicity, CCK-8 cell viability assay; format: cell-based; details: Homo sapiens, read-out: Activity IC50, HCT 116
Procedure: as §1, §2, §3

[3] = system: MCF-7 (human breast adenocarcinoma cell line); assay: Cytotoxicity, CCK-8 cell viability assay; format: cell-based; details: read-out: Activity IC50, MCF-7
Procedure: as §1, §2
as §3, with “After 24 h, the culture medium was removed and 100 µL of fresh medium containing the test compounds at 0–12.5 µM concentrations was added to the culture wells.” left out

S. aureus ATCC 25923 = assay: Antibacterial assay, optical density of culture in TSB; format: cell-based, Staphylococcus aureus; details: 18 h; for Difference between optical density before and after culture, S. aureus ATCC 25923: 37 °C
Procedure: (§4) Investigations were carried out using different concentrations of solutions from 25 to 250 µM. A 25 µM concentration of the tested derivatives was not enough to inhibit the growth of […]. When the concentration of analogs 7d–7f and 9a–9c increased to 200 µM, the growth of S. aureus ATCC 25923 and S. epidermidis ATCC 12228 was inhibited. Furthermore, the optical density of all compounds remained unchanged after 18 h of bacteria culture. In the case of analogs 7a–7c, the optical density values were between 0.9 and 2.2 when they were cultured with S. aureus ATCC 25923. The bacterial growth was slower compared to the control sample (TSB-culture medium). […] In the case of analog 7c, the optical density increased up to […] after 18 h of the sample culture with both kinds of Gram-positive bacteria. In contrast, the reference sample’s (TSB) optical density increased to 7.5 for S. aureus ATCC 25923, and 4.9 for S. epidermidis ATCC 12228 after 18 h of bacteria culture. […] All of the analog values of the measured optical density were similar to that of the reference sample (5.0–5.1, Table 3).
(§5) Antibacterial analysis was performed using the S. aureus ATCC 25923, S. epidermidis ATCC 12228, and Escherichia coli ATCC 25922 bacteria strains. The test compounds were dissolved in DMSO to obtain a stock solution with a concentration of 5 mM (betulin) or 10 mM (other test compounds). The stock solution was diluted with water to the desired concentration (25–250 µM). Then, 1 mL of the investigated solutions was mixed with 1 mL of culture medium (TSB, Biomaxima, Lublin, Poland) in a sterile glass tube. The initial concentration of bacteria was around 5 × 10^6 CFU/mL. The concentration of bacteria was measured using an optical densitometer before and after 18 h of bacteria culture in glass tubes at 37 °C (incubator POL-EKO, Wodzislaw Slaski, Poland). The investigations were repeated for three independent samples. The control sample was the culture medium without any supplementation.

[4] = system: S. epidermidis ATCC 12228; assay: as above; format: cell-based, Staphylococcus epidermidis; details: 18 h; for Difference between optical density before and after culture, S. epidermidis ATCC 12228: 37 °C
Procedure: as §4, §5

[5] = system: Escherichia coli ATCC 25922; assay: as above; format: cell-based; details: 37 °C, 18 h; further: key: 0: no difference between samples after 18 h of bacteria culture (bacteria grow was inhibited); neg: negative results (analog BN did not inhibit bacteria growing)
Procedure: as §4, §5

[6] = CCK-8 assay, incubation time 24 h, mean ± SD (n = 3)
[7] = HCT-116, CCK-8 assay, incubation time 24 h, mean ± SD (n = 3)
[8] = MCF7, CCK-8 assay, incubation time 24 h, mean ± SD (n = 3)

With `C=C(C)[C@@H]1CC[C@]2(COC(=O)CCC(=O)OCCCC[P+](c3ccccc3)(c3ccccc3)c3ccccc3)CC[C@]3(C)C(CCC4[C@@]5(C)CC[C@H](OC(=O)CCC(=O)OCCCC[P+](c6ccccc6)(c6ccccc6)c6ccccc6)C(C)(C)C5CC[C@]43C)C12` (some centres unmarked) [9b, 3,28-O,O’-Bis(3’-(4"-triphenylphosphoniobutyloxycarbonyl)propanoyl)betulin bromide] the IC50 ([1]; 24 h) was 8.02 ± 0.35 µM, the IC50 ([2]; HCT-116, 24 h) was 7.97 ± 0.51 µM and the IC50 ([3]; MCF7, 24 h) was 23.6 ± 0.33 µM. For the same molecule, the “Difference between optical density before and after culture, S. aureus ATCC 25923” value (S. aureus ATCC 25923; 200 μM) was 0, the “Difference between optical density before and after culture, S. aureus ATCC 25923” value (S. aureus ATCC 25923; 250 μM) was 0 and the “Difference between optical density before and after culture, S. epidermidis ATCC 12228” value ([4]; 200 μM) was 0. For the same molecule, the “Difference between optical density before and after culture, S. epidermidis ATCC 12228” value ([4]; 250 μM) was 0, the “Difference between optical density before and after culture, Escherichia coli ATCC 25922” value ([5]; 200 μM) was “neg” and the “Difference between optical density before and after culture, Escherichia coli ATCC 25922” value ([5]; 250 μM) was “neg”.
With `C=C(C)[C@@H]1CC[C@]2(COC(=O)CC(C)(C)C(=O)OCCCCC[P+](c3ccccc3)(c3ccccc3)c3ccccc3)CC[C@]3(C)C(CCC4[C@@]5(C)CC[C@H](OC(C)=O)C(C)(C)C5CC[C@]43C)C12` (some centres unmarked) [7f, 3-O-Acetyl-28-O’-(3’,3’-dimethyl-3’-(5"-triphenylphosphoniopentyloxycarbonyl)propanoyl)betulin bromide] the IC50 [1, 6] was 10 ± 0.48 µM, the IC50 [2, 7] was 12.7 ± 0.89 µM and the IC50 [3, 8] was 50.5 ± 3.92 µM. For the same molecule, the “Difference between optical density before and after culture, S. aureus ATCC 25923” value (S. aureus ATCC 25923; 200 μM) was 0, the “Difference between optical density before and after culture, S. aureus ATCC 25923” value (S. aureus ATCC 25923; 250 μM) was 0 and the “Difference between optical density before and after culture, S. epidermidis ATCC 12228” value ([4]; 200 μM) was 0. For the same molecule, the “Difference between optical density before and after culture, S. epidermidis ATCC 12228” value ([4]; 250 μM) was 0, the “Difference between optical density before and after culture, Escherichia coli ATCC 25922” value ([5]; 200 μM) was “neg” and the “Difference between optical density before and after culture, Escherichia coli ATCC 25922” value ([5]; 250 μM) was “neg”.
With `C=C(C)[C@@H]1CC[C@]2(COC(=O)CCC(=O)OCCCCC[P+](c3ccccc3)(c3ccccc3)c3ccccc3)CC[C@]3(C)C(CCC4[C@@]5(C)CC[C@H](OC(=O)CCC(=O)OCCCCC[P+](c6ccccc6)(c6ccccc6)c6ccccc6)C(C)(C)C5CC[C@]43C)C12` (some centres unmarked) [9c, 3,28-O,O′-Bis(3’-(5"-triphenylphosphoniopentyloxycarbonyl)propanoyl)betulin bromide] the IC50 ([1]; 24 h) was 10.6 ± 0.34 µM, the IC50 ([2]; HCT-116, 24 h) was 19 ± 0.51 µM and the IC50 ([3]; MCF7, 24 h) was 53.3 ± 5.41 µM. The “Difference between optical density before and after culture, S. aureus ATCC 25923” value (S. aureus ATCC 25923; 200 μM) was 0, the “Difference between optical density before and after culture, S. aureus ATCC 25923” value (S. aureus ATCC 25923; 250 μM) was 0 and the “Difference between optical density before and after culture, S. epidermidis ATCC 12228” value ([4]; 200 μM) was 0. The “Difference between optical density before and after culture, S. epidermidis ATCC 12228” value ([4]; 250 μM) was 0, the “Difference between optical density before and after culture, Escherichia coli ATCC 25922” value ([5]; 200 μM) was “neg” and the “Difference between optical density before and after culture, Escherichia coli ATCC 25922” value ([5]; 250 μM) was “neg”.
For `C=C(C)[C@@H]1CC[C@]2(COC(=O)CCC(=O)OCCCC[P+](c3ccccc3)(c3ccccc3)c3ccccc3)CC[C@]3(C)C(CCC4[C@@]5(C)CC[C@H](OC(C)=O)C(C)(C)C5CC[C@]43C)C12` (some centres unmarked) [7b, 3-O-Acetyl-28-O’-(3’-(4"-triphenylphosphoniobutyloxycarbonyl)propanoyl)betulin bromide], the IC50 [1, 6] was 10.7 ± 0.25 µM, the IC50 [2, 7] was 5.77 ± 0.27 µM and the IC50 [3, 8] was 14.3 ± 0.38 µM. For the same molecule, the “Difference between optical density before and after culture, S. aureus ATCC 25923” value (S. aureus ATCC 25923; 200 μM) was 2.2 McFarland’s scale (CFU/mL), the “Difference between optical density before and after culture, S. aureus ATCC 25923” value (S. aureus ATCC 25923; 250 μM) was 0 and the “Inhibition of growth of S. aureus ATCC 25923 (in words)” value (S. aureus ATCC 25923; 250 µM) was “greatly inhibited the growth”. The “Difference between optical density before and after culture, S. epidermidis ATCC 12228” value ([4]; 200 μM) was “neg”, the “Difference between optical density before and after culture, S. epidermidis ATCC 12228” value ([4]; 250 μM) was 0 and the “Inhibition of growth of S. epidermidis ATCC 12228 (in words)” value ([4]; 250 µM) was “greatly inhibited the growth”. The “Difference between optical density before and after culture, Escherichia coli ATCC 25922” value ([5]; 200 μM) was “neg” and the “Difference between optical density before and after culture, Escherichia coli ATCC 25922” value ([5]; 250 μM) was “neg”.
For `C=C(C)[C@@H]1CC[C@]2(COC(=O)CC(C)(C)C(=O)OCCC[P+](c3ccccc3)(c3ccccc3)c3ccccc3)CC[C@]3(C)C(CCC4[C@@]5(C)CC[C@H](OC(C)=O)C(C)(C)C5CC[C@]43C)C12` (some centres unmarked) [7d, 3-O-Acetyl-28-O’-(3’,3’-dimethyl-3’-(3"-triphenylphosphoniopropyloxycarbonyl)propanoyl)betulin bromide], the “Difference between optical density before and after culture, S. aureus ATCC 25923” value (S. aureus ATCC 25923; 200 μM) was 0, the “Difference between optical density before and after culture, S. aureus ATCC 25923” value (S. aureus ATCC 25923; 250 μM) was 0 and the “Difference between optical density before and after culture, S. epidermidis ATCC 12228” value ([4]; 200 μM) was 0. For the same molecule, the “Difference between optical density before and after culture, S. epidermidis ATCC 12228” value ([4]; 250 μM) was 0, the “Difference between optical density before and after culture, Escherichia coli ATCC 25922” value ([5]; 200 μM) was “neg” and the “Difference between optical density before and after culture, Escherichia coli ATCC 25922” value ([5]; 250 μM) was “neg”.
For `C=C(C)[C@@H]1CC[C@]2(COC(=O)CC(C)(C)C(=O)OCCCC[P+](c3ccccc3)(c3ccccc3)c3ccccc3)CC[C@]3(C)C(CCC4[C@@]5(C)CC[C@H](OC(C)=O)C(C)(C)C5CC[C@]43C)C12` (some centres unmarked) [7e, 3-O-Acetyl-28-O’-(3’,3’-dimethyl-3’-(4"-triphenylphosphoniobutyloxycarbonyl)propanoyl)betulin bromide], the “Difference between optical density before and after culture, S. aureus ATCC 25923” value (S. aureus ATCC 25923; 200 μM) was 0, the “Difference between optical density before and after culture, S. aureus ATCC 25923” value (S. aureus ATCC 25923; 250 μM) was 0 and the “Difference between optical density before and after culture, S. epidermidis ATCC 12228” value ([4]; 200 μM) was 0. For the same molecule, the “Difference between optical density before and after culture, S. epidermidis ATCC 12228” value ([4]; 250 μM) was 0, the “Difference between optical density before and after culture, Escherichia coli ATCC 25922” value ([5]; 200 μM) was “neg” and the “Difference between optical density before and after culture, Escherichia coli ATCC 25922” value ([5]; 250 μM) was “neg”.

— publication PMC9416257, “Design, Synthesis and Preliminary Evaluation of the Cytotoxicity and Antibacterial Activity of Novel Triphenylphosphonium Derivatives of Betulin” (Molecules, 2022)
